Data: PMC11851430, “Workflow for E3 Ligase Ligand Validation for PROTAC Development” (ACS Chemical Biology, 2025)

Tests used:
[1] = target: T1, kinase protein levels in MCF-7 cells (Homo sapiens, UniProt A0A096LP01); experiment: TMT-labeled quantitative proteomics; type: cell-based; details: MCF7, 1 µM
T1 construct: endogenous in cells; host or cells: MCF-7
Method: (§1) 50 µl of SDS Lysis Buffer (2% SDS, 50 mM TRIS pH 8.5, 10 mM TCEP, 40 mM CAA) was added to each sample. Cells were transferred into low binding reaction tubes (Eppendorf:
(§2) Methanol/Chloroform Precipitation. 200 µl of methanol and 50 µl of chloroform were added to each sample reaction tube and mixed via vortex. 150 µl of milliQ-H2O were added and samples were vortexed further. Samples were centrifuged for 5 minutes at 15000 g and the aqueous layer above the interphase was removed. 150 µl of methanol was added, samples were vortexed and centrifuged for 10 minutes at 15000 g to precipitate the pellet. The aforementioned wash procedure was repeated twice before transferring the pellet to a new low bind reaction tube in which it was allowed to dry for 5 minutes.
(§3) Dissolving the Protein Pellet and Protein Quantification. 50 µl of digestion buffer (8 M Urea, 50 mM TRIS pH 8) was added to each sample before vortexing and shaking at 750 rpm at room temperature for 10 minutes to solubilize the pellet. Protein quantification via PierceTM […]
(§4) Protein Digestion. Samples were diluted 1:2 with 50 mM TRIS pH 8.5 to reach a final concentration of 4 M Urea. Lys-C (Promega: VA1170) was added at a 1:100 enzyme/substrate ratio. Samples were agitated at 550 rpm and 37 °C for 3 h. Samples were further diluted with 50 mM TRIS pH 8.5 to a final concentration of 1 M Urea and Trypsin (Promega: V5280) was added at a 1:100 enzyme/substrate ratio. Samples were agitated overnight at 550 rpm and 37 °C. The digestion was stopped the following day via addition of TFA to a final concentration […]
(§5) Solid Phase Extraction via C18 Cartridges. Sep-Pak C18 Cartridges (Waters: WAT054955) were used for solid phase extraction of digested peptides. For preconditioning of C18 cartridges, 1 mL of methanol was added to each column followed by 1 mL of solution B (0.1% formic acid, 80% acetonitrile) and 1 mL of solution A (0.1% formic acid, ddH2O) twice. Samples […]
(§6) were loaded to their respective columns and once samples had passed, columns were washed twice with solution A to remove unwanted components from the loading step. Elution of samples was carried out via introduction of 40% and 60% acetonitrile steps. Samples were dried and snap frozen in liquid nitrogen.
(§7) TMT-Labeling. Desalted peptides were dried and resuspended in TMT-labeling buffer (200 mM EPPS pH 8.2, 20% acetonitrile). 10 μg of peptides per condition were subjected to TMT labeling with 1:2.5 peptide TMT ratio (w/w) for 1 h at room temperature. The labeling reaction was quenched by addition of hydroxylamine to a final concentration of 0.5% and incubation at room temperature for 15 minutes. Successful TMT labeling was verified by mixing equimolar ratios of peptides and subjecting the mix to single shot LC-MS/MS analysis. For high pH reversed phase fractionation on a Dionex analytical HPLC, 50 µg of pooled and purified TMT labelled samples were resuspended in 10 mM ammonium-bicarbonate (ABC), 5% acetonitrile, and separated on a 250 mm long C18 column (Aeris Peptide XB-C18, 4.6 mm ID, 2.6 µm particle size; Phenomenex) using a multistep gradient from 100% solvent A (5% acetonitrile, 10 mM ABC in water) to 60% solvent B (90% acetonitrile, 10 mM ABC in water) over 70 minutes. Eluting peptides were collected every 45 seconds into a total of 96 fractions, which were cross-concatenated into 24 fractions and dried in a vacuum concentrator and resuspended in 3% acetonitrile with 0.1% TFA for LC-MS analysis.
(§8) Mass spectrometry data acquisition. Tryptic peptides were analyzed on an Orbitrap Lumos coupled to an easy nLC 1200 (ThermoFisher Scientific) using a 35 cm long, 75 µm ID fused-silica column packed in house with 1.9 µm C18 particles (Reprosil pur, Dr. Maisch), and kept at 50 °C using an integrated column oven (Sonation). HPLC solvents consisted of 0.1% formic acid in water (buffer A) and 0.1% formic acid and 80% acetonitrile in water (buffer B). Assuming

[2] = tested on: kinase protein levels in MCF-7 cells; experiment: TMT-labeled quantitative proteomics; type: cell-based, human; details: for kinase degradation: MCF-7 cells, 1 μM, 6 h; for log2FC (compound/DMSO): MCF7, 1 µM, set5
Method: as §1, §2, §3, §4, §5, §6, §7, §8

[3] = target: T2, kinase protein levels in MCF-7 cells (Homo sapiens, UniProt Q9BTL3); experiment: TMT-labeled quantitative proteomics; type: cell-based; details: protein FAM103A1; MCF7; 1 µM; set5
T2 construct: endogenous in cells; host or cells: MCF-7
T2 sequence (Q9BTL3 whole entry): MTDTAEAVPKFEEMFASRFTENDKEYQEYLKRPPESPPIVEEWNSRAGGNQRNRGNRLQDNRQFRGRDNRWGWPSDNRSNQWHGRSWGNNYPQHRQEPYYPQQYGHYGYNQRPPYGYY
Method: as §1, §2, §3, §4, §5, §6, §7, §8

AURKA = target: T3, AURKA (Homo sapiens, UniProt O14965); experiment: NanoBRET target engagement assay, intact and permeabilized cells; details: mean of duplicates, ^a values estimated by extrapolation
T3 sequence (O14965 1-403): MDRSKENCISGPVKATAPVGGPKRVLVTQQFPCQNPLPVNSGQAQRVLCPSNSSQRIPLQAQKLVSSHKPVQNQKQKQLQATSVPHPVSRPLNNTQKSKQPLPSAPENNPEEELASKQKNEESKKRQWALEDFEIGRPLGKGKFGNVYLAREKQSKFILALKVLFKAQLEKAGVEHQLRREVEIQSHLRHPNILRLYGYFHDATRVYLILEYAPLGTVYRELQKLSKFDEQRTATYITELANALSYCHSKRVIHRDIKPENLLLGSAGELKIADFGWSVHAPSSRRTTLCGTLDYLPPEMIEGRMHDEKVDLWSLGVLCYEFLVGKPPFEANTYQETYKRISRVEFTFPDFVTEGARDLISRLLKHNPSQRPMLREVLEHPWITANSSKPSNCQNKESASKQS
Method: (§9) Compounds were pipetted at various concentrations using an Echo acoustic dispenser (Labcyte), immediately followed by Tracer K10 (Promega, Tracer DB ID: T000008) for AAK1 and Aurora A and VHL Tracer (Promega, Tracer DB ID: T000019) for VHL, at an optimum KD concentration chosen from TracerDB ( tracerdb.org), respectively.
(§10) To measure the BRET signal, the NanoBRET® NanoGlo Substrate (Promega:
(§11) N1573) was added as per the manufacturer’s protocol, and filtered luminescence was measured on a PHERAstar plate reader (BMG Labtech) equipped with a luminescence filter pair (450 nm BP filter (donor) and 610 nm LP filter (acceptor)). For NanoBRET® measurement in permeabilized cells, 25 nL of digitonin (0.05 μg/μL) was pipetted into each well using an
(§12) After incubation, the BRET signals were measured by a PHERAstar plate reader (BMG Labtech) following the same procedure as intact NanoBRET® measurement. Competitive displacement data were then normalized to controls and were plotted using GraphPad Prism 9 software employing a normalized 3-parameter curve fit with the following equation:

VHL = VHL (Homo sapiens, UniProt P40337); experiment: cell-based; design: full-length, NanoLuc fusion (Promega N2741); species or system HEK293T; NanoBRET VHL tracer displacement in permeabilized cells, NanoLuc-VHL fusion; details: permeabilized cells; read-out: VHL permeabilized (IC50±sd)/µM
VHL, sequence (P40337 whole entry, the tested form may be a part): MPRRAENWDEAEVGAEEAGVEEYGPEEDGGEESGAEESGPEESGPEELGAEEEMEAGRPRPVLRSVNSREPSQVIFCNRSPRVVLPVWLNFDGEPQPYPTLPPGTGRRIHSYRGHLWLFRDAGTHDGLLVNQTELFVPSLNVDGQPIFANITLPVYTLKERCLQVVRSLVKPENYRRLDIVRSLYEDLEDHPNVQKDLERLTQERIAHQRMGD

full-length AAK1 = full-length AAK1 (Homo sapiens, UniProt Q2M2I8); experiment: NanoBRET target engagement assay, intact and permeabilized cells; details: NanoBRET, mean of duplicates
full-length AAK1, sequence (Q2M2I8 whole entry): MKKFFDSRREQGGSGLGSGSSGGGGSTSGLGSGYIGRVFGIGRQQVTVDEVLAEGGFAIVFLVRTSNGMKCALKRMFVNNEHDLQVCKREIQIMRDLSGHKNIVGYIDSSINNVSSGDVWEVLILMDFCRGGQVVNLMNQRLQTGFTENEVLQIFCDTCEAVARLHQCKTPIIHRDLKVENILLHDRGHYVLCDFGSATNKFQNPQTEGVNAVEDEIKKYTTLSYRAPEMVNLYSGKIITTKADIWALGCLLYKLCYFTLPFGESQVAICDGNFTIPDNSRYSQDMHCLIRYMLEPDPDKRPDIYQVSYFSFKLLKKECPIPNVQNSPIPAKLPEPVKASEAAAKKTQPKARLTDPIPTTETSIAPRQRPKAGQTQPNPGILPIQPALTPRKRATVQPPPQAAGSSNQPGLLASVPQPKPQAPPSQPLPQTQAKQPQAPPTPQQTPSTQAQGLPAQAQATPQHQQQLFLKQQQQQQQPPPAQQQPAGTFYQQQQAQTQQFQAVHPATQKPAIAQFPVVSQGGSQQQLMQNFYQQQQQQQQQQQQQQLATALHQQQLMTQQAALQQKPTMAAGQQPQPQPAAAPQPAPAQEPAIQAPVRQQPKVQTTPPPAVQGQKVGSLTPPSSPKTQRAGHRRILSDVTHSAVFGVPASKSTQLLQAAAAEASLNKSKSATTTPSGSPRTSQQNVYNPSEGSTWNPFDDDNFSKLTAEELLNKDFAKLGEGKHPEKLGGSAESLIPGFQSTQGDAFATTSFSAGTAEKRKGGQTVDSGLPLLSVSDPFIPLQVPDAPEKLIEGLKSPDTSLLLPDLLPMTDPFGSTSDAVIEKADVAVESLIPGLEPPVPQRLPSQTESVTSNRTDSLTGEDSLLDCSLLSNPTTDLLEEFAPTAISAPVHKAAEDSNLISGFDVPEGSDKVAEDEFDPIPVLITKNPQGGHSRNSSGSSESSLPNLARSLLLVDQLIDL
Method: as §9, §10, §11, §12

[4] = target: T4, kinase protein levels in MCF-7 cells (Homo sapiens, UniProt A0A0B4J2F0); experiment: TMT-labeled quantitative proteomics; type: cell-based; details: protein PIGBOS1; MCF7; 1 µM; set2
T4 construct: endogenous in cells; host or cells: MCF-7
T4 sequence (A0A0B4J2F0 1-54): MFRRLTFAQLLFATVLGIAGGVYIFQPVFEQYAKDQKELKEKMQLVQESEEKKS
Method: as §1, §2, §3, §4, §5, §6, §7, §8

[5] = target: T5, kinase protein levels in MCF-7 cells (Homo sapiens, UniProt A0A024RBG1); experiment: TMT-labeled quantitative proteomics; type: cell-based; details: protein NUDT4B; MCF7; 1 µM; set2
T5 construct: endogenous in cells; host or cells: MCF-7
T5 sequence (A0A024RBG1 whole entry): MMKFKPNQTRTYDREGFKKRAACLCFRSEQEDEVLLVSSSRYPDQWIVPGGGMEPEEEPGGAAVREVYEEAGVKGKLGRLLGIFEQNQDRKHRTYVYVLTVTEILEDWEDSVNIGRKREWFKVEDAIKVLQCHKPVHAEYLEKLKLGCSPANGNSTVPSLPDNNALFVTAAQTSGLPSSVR
Method: as §1, §2, §3, §4, §5, §6, §7, §8

[6] = target: T6, kinase protein levels in MCF-7 cells (Homo sapiens, UniProt A0A0U1RRE5); experiment: TMT-labeled quantitative proteomics; type: cell-based; details: protein NBDY; MCF7; 1 µM; set2
T6 construct: endogenous in cells; host or cells: MCF-7
T6 sequence (A0A0U1RRE5 1-68): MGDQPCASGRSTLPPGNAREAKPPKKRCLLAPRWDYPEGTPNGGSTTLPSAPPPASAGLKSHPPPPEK
Method: as §1, §2, §3, §4, §5, §6, §7, §8

[7] = target: T7, kinase protein levels in MCF-7 cells (Homo sapiens, UniProt P0DPI2); experiment: TMT-labeled quantitative proteomics; type: cell-based; details: protein GATD3; MCF7; 1 µM; set2
T7 construct: endogenous in cells; host or cells: MCF-7
T7 sequence (P0DPI2 42-268): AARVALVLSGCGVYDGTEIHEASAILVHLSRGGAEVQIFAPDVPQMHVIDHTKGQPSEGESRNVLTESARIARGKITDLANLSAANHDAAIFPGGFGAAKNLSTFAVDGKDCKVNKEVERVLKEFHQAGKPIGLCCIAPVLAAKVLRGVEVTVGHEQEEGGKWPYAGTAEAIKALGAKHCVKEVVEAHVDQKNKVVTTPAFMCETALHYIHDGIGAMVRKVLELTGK
Method: as §1, §2, §3, §4, §5, §6, §7, §8

[8] = AURKA intact (IC50±sd)/μM, intact cells
[9] = AURKA permeabilized (IC50±sd)/μM, permeabilized cells
[10] = AAK1 intact (IC50±sd)/μM, intact cells, ^a values estimated by extrapolation
[11] = AAK1 permeabilized (IC50±sd)/μM, permeabilized cells

T1 sequence (A0A096LP01 whole entry): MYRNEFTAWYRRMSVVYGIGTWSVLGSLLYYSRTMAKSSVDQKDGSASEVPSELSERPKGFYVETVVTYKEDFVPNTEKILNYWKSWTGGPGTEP

Cc1ncsc1-c1ccc(CNC(=O)[C@@H]2C[C@@H](O)CN2C(=O)[C@@H](NC(=O)CCCCCCN2CCN(c3cc(Nc4cc(C5CC5)[nH]n4)nc(Nc4ccc(CC#N)cc4)n3)CC2)C(C)(C)C)cc1 [4-c]
P.Value (compound/DMSO) ([1]; protein LINC00493, set5): 0.06841 | log2FC (compound/DMSO) ([1]; protein LINC00493, set5): 0.3546 | kinase degradation [2]: significant degradation of several kinases | log2FC (compound/DMSO) ([2]; protein ARHGEF5;ARHGEF35): 0.09465 | log2FC (compound/DMSO) ([2]; protein NBPF19;NBPF15;NBPF8;NBPF10;NBPF3;NBPF11;NBPF26;NBPF14;NBPF1;NBPF12): -0.3485 | P.Value (compound/DMSO) [3]: 0.9983 | log2FC (compound/DMSO) [3]: -0.0003068 | IC50 (AURKA; [8]): ~5.98 µM | IC50 (AURKA; [9]): 2.73 ± 0.78 µM | IC50 (VHL): 4.32 ± 1.46 µM | IC50 (full-length AAK1; [10]): 0.443 ± 0.043 µM | IC50 (full-length AAK1; [11]): 0.178 ± 0.029 µM

CC(=O)N[C@H](C(=O)N1C[C@H](O)C[C@H]1C(=O)NCc1ccc(-c2scnc2C)cc1OCCOCCOCCOCCOCCC(=O)N1CCN(c2cc(Nc3cc(C4CC4)[nH]n3)nc(Nc3ccc(CC#N)cc3)n2)CC1)C(C)(C)C [4-d]
P.Value (compound/DMSO) ([1]; protein SMIM26, set2): 0.9318 | log2FC (compound/DMSO) ([1]; protein SMIM26, set2): 0.01005 | P.Value (compound/DMSO) [4]: 0.6355 | log2FC (compound/DMSO) [4]: 0.04834 | P.Value (compound/DMSO) [5]: 0.1315 | log2FC (compound/DMSO) [5]: -0.2481 | P.Value (compound/DMSO) [6]: 0.03785 | log2FC (compound/DMSO) [6]: -0.3975 | P.Value (compound/DMSO) [7]: 0.2539 | log2FC (compound/DMSO) [7]: -0.1491 | kinase degradation [2]: did not result in significant degradation of any kinase | IC50 (AURKA; [8]): 4.62 ± 1.12 µM | IC50 (AURKA; [9]): 1.52 ± 0.061 µM | IC50 (VHL): 0.366 ± 0.064 µM | IC50 (full-length AAK1; [10]): 0.126 ± 0.033 µM | IC50 (full-length AAK1; [11]): 0.038 ± 0.006 µM
